Assay [1] concerns the target T1, BTK (Homo sapiens, UniProt Q06187).
T1 construct: endogenous in cells; host or cells: TMD-8 cells
In words: BTK degradation in TMD-8 cells (HTRF assay). The assay is classed as cell-based. The conditions noted are these: 6 h treatment, HTRF BTK degradation IC50 (DC50). In a few lines:
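BTK levels measured by HTRF (665/620 nm) in lysates of TMD-8 cells after 6 h compound treatment, with antibody incubation overnight at room temperature. Dosing covered 8 points, 6-fold dilutions from 1 mM 500× stocks, 0.2% DMSO final. Four-parameter curve fitting gave DC50.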

The subject of assay [2] is HEK-293 cells. In words: HEK-293 cytotoxicity detection (CellTiter-Glo). The assay is classed as cell-based. The following applies: Homo sapiens, 72 h incubation, read-out: HEK293. Put shortly: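 Cytotoxicity IC50 derived by four-parameter curve fitting of percent inhibition of CellTiter-Glo luminescence. Compounds tested at 8 doses in 4-fold steps, 0.2% DMSO, on HEK-293 cells for 72 h.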
(In ATP-based viability assays light output follows the ATP content of the culture.)

Counter-ions that a name gives are not always drawn.

The record followed here is patent US12521440B2, “Degradation of bruton's tyrosine kinase (BTK) by conjugation of BTK inhibitors with E3 ligase ligand and methods of use” (BeOne Medicines I GmbH, priority 2021, dated 2026).

T1 sequence (Q06187 whole entry): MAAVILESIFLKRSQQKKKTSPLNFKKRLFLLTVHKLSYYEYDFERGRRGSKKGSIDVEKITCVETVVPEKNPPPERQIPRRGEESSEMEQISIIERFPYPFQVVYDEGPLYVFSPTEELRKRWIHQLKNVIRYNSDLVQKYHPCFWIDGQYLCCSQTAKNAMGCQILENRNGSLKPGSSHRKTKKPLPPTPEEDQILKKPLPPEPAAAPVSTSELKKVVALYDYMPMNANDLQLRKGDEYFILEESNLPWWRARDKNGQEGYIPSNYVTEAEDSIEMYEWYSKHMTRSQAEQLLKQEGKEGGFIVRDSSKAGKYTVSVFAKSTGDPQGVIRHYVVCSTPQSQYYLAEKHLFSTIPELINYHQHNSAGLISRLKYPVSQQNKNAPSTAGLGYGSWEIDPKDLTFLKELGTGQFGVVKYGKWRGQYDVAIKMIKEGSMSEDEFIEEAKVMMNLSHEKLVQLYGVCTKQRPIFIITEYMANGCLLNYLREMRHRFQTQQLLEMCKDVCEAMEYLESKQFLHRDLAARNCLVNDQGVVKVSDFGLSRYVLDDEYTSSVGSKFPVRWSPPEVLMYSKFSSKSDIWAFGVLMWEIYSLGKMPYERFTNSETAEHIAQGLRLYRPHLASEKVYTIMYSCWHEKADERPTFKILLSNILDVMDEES

What is called DC50 is the midpoint of the concentration-degradation curve. A high value points to degradation only at high concentration. `Cc1cc(-c2cc(Nc3ccc(N4CCC5(CC4)CN(C(=O)C4CCN(c6ccc(N7CCC(=O)NC7=O)cc6)C4)C5)cn3)ncn2)ccc1[C@@H](C)NC(=O)c1nc(C(C)(C)C)no1` (stereo partly drawn) [Example 38, 3-(tert-butyl)-N-((1R)-1-(4-(6-((5-(2-(1-(4-(2,4-dioxotetrahydropyrimidin-1(2H)-yl)phenyl)pyrrolidine-3-carbonyl)-2,7-diazaspiro[3.5]nonan-7-yl)pyridin-2-yl)amino)pyrimidin-4-yl)-2-methylphenyl)ethyl)-1,2,4-oxadiazole-5-carboxamide]: the 50% degradation concentration (DC50) in assay [1] stood at 0.954 nM. The IC50 in assay [2] is over 10000 nM.

In assay [1], `Cc1cc(-c2cc(Nc3ccc(N4CCN(C5CN(C6CN(c7ccc(N8CCC(=O)NC8=O)cc7)C6)C5)CC4)cn3)ncn2)ccc1[C@@H](C)NC(=O)c1nc(C(C)(C)C)no1` [Example 39, (R)-3-(tert-butyl)-N-(1-(4-(6-((5-(4-(1′-(4-(2,4-dioxotetrahydropyrimidin-1(2H)-yl)phenyl)-[1,3′-biazetidin]-3-yl)piperazin-1-yl)pyridin-2-yl)amino)pyrimidin-4-yl)-2-methylphenyl)ethyl)-1,2,4-oxadiazole-5-carboxamide] had a DC50 of 0.209 nM. Further, in assay [2], the IC50 was over 10000 nM.

As for `Cc1cc(-c2cc(Nc3ccc(N4CCN(C5CN(c6ccc(N7CCC(=O)NC7=O)cc6)C5)CC4)cn3)ncn2)ccc1[C@@H](C)NC(=O)c1nc(C(C)(C)C)no1` [Example 40, (R)-3-(tert-butyl)-N-(1-(4-(6-((5-(4-(1-(4-(2,4-dioxotetrahydropyrimidin-1(2H)-yl)phenyl)azetidin-3-yl)piperazin-1-yl)pyridin-2-yl)amino)pyrimidin-4-yl)-2-methylphenyl)ethyl)-1,2,4-oxadiazole-5-carboxamide], in assay [1], the DC50 was 0.382 nM. Also, the IC50 in assay [2] is over 10000 nM.

The compound `Cc1cc(-c2cc(Nc3ccc(N4CCN(C5CN(c6ccc(C7CCC(=O)NC7=O)cc6)C5)CC4)cn3)ncn2)ccc1[C@@H](C)NC(=O)c1nc(C(C)(C)C)no1` (stereo partly drawn) [Example 41, 3-(tert-butyl)-N-((1R)-1-(4-(6-((5-(4-(1-(4-(2,6-dioxopiperidin-3-yl)phenyl)azetidin-3-yl)piperazin-1-yl)pyridin-2-yl)amino)pyrimidin-4-yl)-2-methylphenyl)ethyl)-1,2,4-oxadiazole-5-carboxamide] showed a DC50 in assay [1] of 2.47 nM. In assay [2], the IC50 is over 10000 nM.

In assay [1], `Cc1cc(-c2cc(Nc3ccc(N4CCN(C5CN(C6CN(c7ccc(C8CCC(=O)NC8=O)cc7)C6)C5)CC4)cn3)ncn2)ccc1[C@@H](C)NC(=O)c1nc(C(C)(C)C)no1` (stereo partly drawn) [Example 42, 3-(tert-butyl)-N-((1R)-1-(4-(6-((5-(4-(1′-(4-(2,6-dioxopiperidin-3-yl)phenyl)-[1,3′-biazetidin]-3-yl)piperazin-1-yl)pyridin-2-yl)amino)pyrimidin-4-yl)-2-methylphenyl)ethyl)-1,2,4-oxadiazole-5-carboxamide] registered a 50% degradation concentration (DC50) of 1.2 nM. Also, the IC50 in assay [2] is over 10000 nM.

As for `Cc1cc(-c2cc(Nc3ccc(N4CCN(C5CC6(CCN(c7ccc(N8CCC(=O)NC8=O)cc7)CC6)C5)CC4)cn3)ncn2)ccc1[C@@H](C)NC(=O)c1nc(C(C)(C)C)no1` [Example 43, (R)-3-(tert-butyl)-N-(1-(4-(6-((5-(4-(7-(4-(2,4-dioxotetrahydropyrimidin-1(2H)-yl)phenyl)-7-azaspiro[3.5]nonan-2-yl)piperazin-1-yl)pyridin-2-yl)amino)pyrimidin-4-yl)-2-methylphenyl)ethyl)-14-oxadiazole-5-carboxamide], the 50% degradation concentration (DC50) in assay [1] is 2.99 nM. In assay [2], the IC50 is over 10000 nM.

With `Cc1cc(-c2cc(Nc3ccc(N4CCN(C5CN(C6CN(c7ccc8c(c7)C(=O)N(C7CCC(=O)NC7=O)C8=O)C6)C5)CC4)cn3)ncn2)ccc1[C@@H](C)NC(=O)c1nc(C(C)(C)C)no1` (stereo partly drawn) [Example 44, 3-(tert-butyl)-N-((1R)-1-(4-(6-((5-(4-(1′-(2-(2,6-dioxopiperidin-3-yl)-1,3-dioxoisoindolin-5-yl)-[1,3′-biazetidin]-3-yl)piperazin-1-yl)pyridin-2-yl)amino)pyrimidin-4-yl)-2-methylphenyl)ethyl)-1,2,4-oxadiazole-5-carboxamide], in assay [1], it took 1.63 nM to reach half-maximal degradation (DC50). In addition, the IC50 in assay [2] was over 10000 nM.

For the compound `Cc1cc(-c2cc(Nc3ccc(N4CCN(CCc5cc(F)c(C6CCC(=O)NC6=O)c(F)c5)CC4)cn3)ncn2)ccc1[C@@H](C)NC(=O)c1nc(C(C)(C)C)no1` (stereo partly drawn) [Example 45, 3-(tert-butyl)-N-((1R)-1-(4-(6-((5-(4-(4-(2,6-dioxopiperidin-3-yl)-3,5-difluorophenethyl)piperazin-1-yl)pyridin-2-yl)amino)pyrimidin-4-yl)-2-methylphenyl)ethyl)-1,2,4-oxadiazole-5-carboxamide], in assay [1], the 50% degradation concentration (DC50) was 1.75 nM. The IC50 in assay [2] is over 10000 nM.

The compound `Cc1cc(-c2cc(Nc3ccc(N4CCN(CCc5ccc(C6CCC(=O)NC6=O)c(F)c5)CC4)cn3)ncn2)ccc1[C@@H](C)NC(=O)c1nc(C(C)(C)C)no1` (stereo partly drawn) [Example 47, 3-(tert-butyl)-N-((1R)-1-(4-(6-((5-(4-(4-(2,6-dioxopiperidin-3-yl)-3-fluorophenethyl)piperazin-1-yl)pyridin-2-yl)amino)pyrimidin-4-yl)-2-methylphenyl)ethyl)-1,2,4-oxadiazole-5-carboxamide] yielded a DC50 in assay [1] of 0.96 nM. The IC50 in assay [2] is over 10000 nM.

In assay [1], `Cc1cc(CCN2CCN(c3ccc(Nc4cc(-c5ccc([C@@H](C)NC(=O)c6nc(C(C)(C)C)no6)c(C)c5)ncn4)nc3)CC2)ccc1C1CCC(=O)NC1=O` (stereo partly drawn) [Example 48, 3-(tert-butyl)-N-((1R)-1-(4-(6-((5-(4-(4-(2,6-dioxopiperidin-3-yl)-3-methylphenethyl)piperazin-1-yl)pyridin-2-yl)amino)pyrimidin-4-yl)-2-methylphenyl)ethyl)-1,2,4-oxadiazole-5-carboxamide] gave a DC50 of 1.44 nM. The IC50 in assay [2] is over 10000 nM.

`Cc1cc(-c2cc(Nc3ccc(N4CCN(CCc5ccc6c(c5)oc(=O)n6C5CCC(=O)NC5=O)CC4)cn3)ncn2)ccc1[C@@H](C)NC(=O)c1nc(C(C)(C)C)no1` (stereo partly drawn) [Example 49, 3-(tert-butyl)-N-((1R)-1-(4-(6-((5-(4-(2-(3-(2,6-dioxopiperidin-3-yl)-2-oxo-2,3-dihydrobenzo[d]oxazol-6-yl)ethyl)piperazin-1-yl)pyridin-2-yl)amino)pyrimidin-4-yl)-2-methylphenyl)ethyl)-1,2,4-oxadiazole-5-carboxamide]: half-maximal degradation in assay [1] (DC50) was put at 0.486 nM. The IC50 in assay [2] is over 10000 nM.

In assay [1], `Cc1cc(-c2cc(Nc3ccc(N4CCN(CCc5cccc6c5n(C)c(=O)n6C5CCC(=O)NC5=O)CC4)cn3)ncn2)ccc1[C@@H](C)NC(=O)c1nc(C(C)(C)C)no1` (stereo partly drawn) [Example 50, 3-(tert-butyl)-N-((1R)-1-(4-(6-((5-(4-(2-(1-(2,6-dioxopiperidin-3-yl)-3-methyl-2-oxo-2,3-dihydro-1H-benzo[d]imidazol-4-yl)ethyl)piperazin-1-yl)pyridin-2-yl)amino)pyrimidin-4-yl)-2-methylphenyl)ethyl)-1,2,4-oxadiazole-5-carboxamide] registered a DC50 of 0.632 nM. The IC50 in assay [2] is 920 nM.

In the case of `Cc1cc(-c2cc(Nc3ccc(N4CCN(CCc5cccc6c5oc(=O)n6C5CCC(=O)NC5=O)CC4)cn3)ncn2)ccc1[C@@H](C)NC(=O)c1nc(C(C)(C)C)no1` (stereo partly drawn) [Example 51, 3-(tert-butyl)-N-((1R)-1-(4-(6-((5-(4-(2-(3-(2,6-dioxopiperidin-3-yl)-2-oxo-2,3-dihydrobenzo[d]oxazol-7-yl)ethyl)piperazin-1-yl)pyridin-2-yl)amino)pyrimidin-4-yl)-2-methylphenyl)ethyl)-1,2,4-oxadiazole-5-carboxamide formate], the 50% degradation concentration (DC50) in assay [1] is 1.35 nM. In addition, the IC50 in assay [2] was over 10000 nM.

Compound `Cc1cc(-c2cc(Nc3ccc(N4CCN([C@H]5C[C@@H](c6ccc(N[C@@H]7CCC(=O)NC7=O)cc6)C5)CC4)cn3)ncn2)ccc1[C@@H](C)NC(=O)c1nc(C(C)(C)C)no1` [Example 52, 3-(tert-butyl)-N—((R)-1-(4-(6-((5-(4-((1S,3s)-3-(4-(((R)-2,6-dioxopiperidin-3-yl)amino)phenyl)cyclobutyl)piperazin-1-yl)pyridin-2-yl)amino)pyrimidin-4-yl)-2-methylphenyl)ethyl)-1,2,4-oxadiazole-5-carboxamide] showed a half-maximal degradation concentration (DC50) in assay [1] of 3.04 nM. In addition, in assay [2], the IC50 was over 10000 nM.

Compound `Cc1cc(-c2cc(Nc3ccc(N4CCN([C@H]5C[C@H](c6ccc(N[C@H]7CCC(=O)NC7=O)cc6)C5)CC4)cn3)ncn2)ccc1[C@@H](C)NC(=O)c1nc(C(C)(C)C)no1` [Example 53, 3-(tert-butyl)-N—((R)-1-(4-(6-((5-(4-((1S,3r)-3-(4-(((S)-2,6-dioxopiperidin-3-yl)amino)phenyl)cyclobutyl)piperazin-1-yl)pyridin-2-yl)amino)pyrimidin-4-yl)-2-methylphenyl)ethyl)-1,2,4-oxadiazole-5-carboxamide formate] yielded a DC50 in assay [1] of 1.91 nM. In addition, the IC50 in assay [2] is over 10000 nM.

The compound `Cc1cc(-c2cc(Nc3ccc(N4CCN([C@H]5C[C@@H](c6ccc(N[C@H]7CCC(=O)NC7=O)cc6)C5)CC4)cn3)ncn2)ccc1[C@@H](C)NC(=O)c1nc(C(C)(C)C)no1` [Example 54, 3-(tert-butyl)-N—((R)-1-(4-(6-((5-(4-((1R,3s)-3-(4-(((S)-2,6-dioxopiperidin-3-yl)amino)phenyl)cyclobutyl)piperazin-1-yl)pyridin-2-yl)amino)pyrimidin-4-yl)-2-methylphenyl)ethyl)-1,2,4-oxadiazole-5-carboxamide] showed a 50% degradation concentration (DC50) in assay [1] of 4.13 nM. Further, the IC50 in assay [2] was over 10000 nM.
